# “Also recorded” adds a separate entry of the source.
# What was measured:
# β cell CaV channels [1] = test: Perforated whole-cell patch-clamp of Ca2+ currents in RINm5F cells; type: cell-based, rat; details: for effect on ApoCIII-induced hyperactivation of β cell CaV channels (enhancement of whole-cell Ca2+ currents): ApoCIII 20 μg/ml overnight with inhibitor cotreatment or after siRNA pretransfection; for whole-cell Ca2+ current density under basal conditions, inhibitor(s) versus vehicle: in the absence of ApoCIII; for whole-cell Ca2+ current density, ApoCIII alone compared with ApoCIII plus inhibitor(s): ApoCIII 20 μg/ml
# Protocol: (§1) Islets of Langerhans were isolated from adult male and female mice and dispersed into single β cells. RINm5F cells at about 70% confluency were trypsinized. The resultant suspension of cells was seeded into Petri dishes or 12-well plates. The cells were cultivated in RPMI 1640 medium supplemented with 10% fetal bovine serum, 2 mM L-glutamine, and 100 U/100 μg/ml penicillin/streptomycin (Invitrogen, Carlsbad, Calif.) and maintained at 37° C. in a humidified 5% CO2 incubator. They were grown overnight and then subjected to siRNA transfection. For patch-clamp analysis, cells underwent overnight treatment with ApoCIII, the PKA inhibitor H-89 (Calbiochem, La Jolla, Calif.), the PKC inhibitor calphostin C (Calbiochem), the Src kinase inhibitor PP2 (Calbiochem) and the CaV1 channel blocker nimodipine (Calbiochem) in RPMI medium at final concentrations of 20 μg/ml, 0.5 μM, 0.1 μM, 0.1 μM and 5 μM, respectively. ApoCIII was dissolved in 0.1% triflouroacetic acid (TFA) to make a stock solution of 1 mg/ml, whereas H-89, calphostin C, PP2 and nimodipine were dissolved in dimethyl sulfoxide (DMSO) to form stock solutions of 5 mM, 1 mM, 1 mM and 10 mM, respectively. 0.002% TFA and/or 0.03% DMSO were used as vehicle controls.
# Two pairs of 21-mer siRNA duplexes targeting the rat β1 integrin (β1 integrin siRNA #1, ID127971 and (31 integrin siRNA #2, ID127972) and SRBI (ID128929) were designed and chemically synthesized by Applied Biosystems/Ambion (Austin, Tex.). Their sequences were subjected to BLAST search to ensure their specificity. Silencer® Select Negative Control siRNA (4390843), not targeting any gene product, and Silencer® Select GAPDH Positive Control siRNA (4390849), efficiently silencing GAPDH in human, mouse, and rat cells, were purchased from Applied Biosystems/Ambion (Austin, Tex.). RINm5F cells were reversely transfected with Lipofectamine™ RNAiMAX. Briefly, negative control siRNA, β1 integrin siRNA #1, β1 integrin siRNA #2 or SRBI siRNA was mixed with Lipofectamine™ RNAiMAX followed by 20-min incubation at room temperature. Subsequently, cells were added to the siRNA/Lipofectamine™ RNAiMAX mixtures followed by gentle agitation and kept at 37° C. in a humidified 5% CO2 incubator. After 72 h, the transfected cells were grown to about 70% confluency and subjected to immunoblot assay or different treatments.
# (§2) Mouse islet cells and RINm5F cells following different treatments were subjected to single channel and whole-cell patch-clamp measurements. Cell-attached and perforated whole-cell patch-clamp configurations were employed. Electrodes were made from borosilicate glass capillaries, fire-polished and coated with Sylgard close to their tips. Some of them were filled with a solution containing (in mM) 110 BaCl2, 10 TEA-Cl, and 5 HEPES (pH 7.4 with Ba(OH)2) for single channel measurements. Others were filled with a solution composed of (in mM) 76 Cs2SO4, 1 MgCl2, 10 KCl, 10 NaCl, and 5 HEPES (pH 7.35 with CsOH), as well as amphotericin B (0.24 mg/ml) for whole-cell current recordings. Electrode resistance ranged between 4 and 6 MΩ when they were filled with electrode solutions and immersed in bath solutions. The electrode offset potential was corrected in bath solutions prior to gigaseal formation. Single-channel recordings were performed with cells bathed in a depolarizing external recording solution, containing (in mM) 125 KCl, 30 KOH, 10 EGTA, 2 CaCl2, 1 MgCl2, and 5 HEPES-KOH (pH 7.15). This solution was used to bring the intracellular potential to 0 mV. For perforated whole-cell current measurements, the cells were bathed in a solution containing (in mM) 138 NaCl, 5.6 KCl, 1.2 MgCl2, 10 CaCl2, 5 HEPES (pH 7.4). Single channel and whole-cell currents were recorded with an Axopatch 200B amplifier (Molecular Devices, Foster City, Calif.) and an EPC-9 patch clamp amplifier (HEKA Elektronik, Lambrecht/Pfalz, Germany), respectively, at room temperature (about 22° C.). […]
# SRBI [2] = details: cited from earlier work
# CaV1 channels [3] = test: Cell-attached single channel patch-clamp of unitary CaV1 channel currents in RINm5F cells; type: cell-based, rat; details: ApoCIII 20 μg/ml overnight versus vehicle solution
# Protocol: as §1
# as §2, with “For perforated whole-cell current measurements, the cells were bathed in a solution containing (in mM) 138 NaCl, 5.6 KCl, 1.2 MgCl2, 10 CaCl2, 5 HEPES (pH 7.4).” left out
# (§3) All data are presented as mean±SEM. Statistical significance was determined by one-way ANOVA, followed by least significant difference (LSD) test. […]
# CaV1.2 = test: Immunoblot of CaV1.2 subunits in RINm5F cell homogenates; type: cell-based, rat; details: overnight ApoCIII
# Protocol: (§4) Islets of Langerhans were isolated from adult male and female mice and dispersed into single β cells. RINm5F cells at about 70% confluency were trypsinized. The resultant suspension of cells was seeded into Petri dishes or 12-well plates. The cells were cultivated in RPMI 1640 medium supplemented with 10% fetal bovine serum, 2 mM L-glutamine, and 100 U/100 μg/ml penicillin/streptomycin (Invitrogen, Carlsbad, Calif.) and maintained at 37° C. in a humidified 5% CO2 incubator. They were grown overnight and then subjected to siRNA transfection. […]
# (§5) RINm5F cells following different treatments were lysed in a lysis buffer (pH 7.5) consisting of 50 mM HEPES, 150 mM NaCl, 1 mM EGTA, 1 mM EDTA, 10% glycerol, 1% triton X-100, 1 mM PMSF and a protease inhibitor cocktail (Roche Diagnostics, Mannheim, Germany). […] The protein concentration of the resulting samples was determined with Bio-Rad protein assay reagent (Bio-Rad, Hercules, Calif.). […]
# as §3
# CaV1 channels [4] = test: Cell-attached single channel patch-clamp of unitary CaV1 channel currents in mouse islet β cells; type: cell-based; details: ApoCIII 20 μg/ml overnight versus control vehicle
# Protocol: as §1
# as §2, with “For perforated whole-cell current measurements, the cells were bathed in a solution containing (in mM) 138 NaCl, 5.6 KCl, 1.2 MgCl2, 10 CaCl2, 5 HEPES (pH 7.4).” left out
# as §3
# β cell CaV channels [5] = details: mouse islet β cell; previous work; cited from earlier work
# CaV1.3 = test: Immunoblot of CaV1.3 subunits in RINm5F cell homogenates; type: cell-based, rat; details: overnight ApoCIII
# Protocol: as §4, §5, §3
# SRBI [6] = biological target: T1, SRBI (Homo sapiens, UniProt Q8WTV0); details: cited from earlier work
# T1 sequence (Q8WTV0 1-509 isoform Q8WTV0-2): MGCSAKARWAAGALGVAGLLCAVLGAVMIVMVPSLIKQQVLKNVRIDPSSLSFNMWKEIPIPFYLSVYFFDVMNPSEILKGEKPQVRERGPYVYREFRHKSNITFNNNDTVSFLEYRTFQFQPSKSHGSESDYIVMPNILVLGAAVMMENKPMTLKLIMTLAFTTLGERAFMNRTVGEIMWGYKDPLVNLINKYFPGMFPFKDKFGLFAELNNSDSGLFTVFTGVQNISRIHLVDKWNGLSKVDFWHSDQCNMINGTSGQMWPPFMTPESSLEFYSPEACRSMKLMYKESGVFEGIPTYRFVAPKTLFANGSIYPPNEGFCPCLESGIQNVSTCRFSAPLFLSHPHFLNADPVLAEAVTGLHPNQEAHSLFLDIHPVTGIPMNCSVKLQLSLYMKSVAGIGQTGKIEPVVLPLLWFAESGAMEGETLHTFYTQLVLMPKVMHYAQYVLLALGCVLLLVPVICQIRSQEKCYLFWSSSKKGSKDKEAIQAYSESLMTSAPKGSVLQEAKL
# [7] = overnight, H-89 0.5 μM, calphostin C 0.1 μM, PP2 0.1 μM
molecule,measurement,setting,value
calphostin C,effect on ApoCIII-induced hyperactivation of β cell CaV channels (enhancement of whole-cell Ca2+ currents),β cell CaV channels [1],does not affect
same,"whole-cell Ca2+ current density under basal conditions, inhibitor(s) versus vehicle",β cell CaV channels [1],similar
same,"whole-cell Ca2+ current density, ApoCIII alone compared with ApoCIII plus inhibitor(s)",β cell CaV channels [1]; [7],no difference
same,"whole-cell Ca2+ current density, ApoCIII/CalpC versus vehicle-treated control cells",β cell CaV channels [1]; voltage range from 20 to 50 mV,increased significantly
O=S(=O)(NCCNC/C=C/c1ccc(Br)cc1)c1cccc2cnccc12 [H-89],effect on ApoCIII-induced hyperactivation of β cell CaV channels (enhancement of whole-cell Ca2+ currents),β cell CaV channels [1],marginally reduced
same,"whole-cell Ca2+ current density under basal conditions, inhibitor(s) versus vehicle",β cell CaV channels [1],did not significantly influence
same,"whole-cell Ca2+ current density, ApoCIII alone compared with ApoCIII plus inhibitor(s)",β cell CaV channels [1]; [7],did not significantly differ
same,"whole-cell Ca2+ current density, ApoCIII plus inhibitor(s) compared with control cells","β cell CaV channels [1]; overnight, nimodipine 5 μM (control = Nim alone), H-89 0.5 μM, calphostin C 0.1 μM, PP2 0.1 μM",did not significantly differ
CC(C)(C)n1nc(-c2ccc(Cl)cc2)c2c(N)ncnc21 [PP2],effect on ApoCIII-induced hyperactivation of β cell CaV channels (enhancement of whole-cell Ca2+ currents),β cell CaV channels [1],tendency to decrease
same,"whole-cell Ca2+ current density under basal conditions, inhibitor(s) versus vehicle",β cell CaV channels [1],similar
same,"whole-cell Ca2+ currents, ApoCIII and PP2 cotreatment versus vehicle-treated control cells",β cell CaV channels [1]; voltage range 20-40 mV,significantly larger
interferon alpha,SRBI expression,SRBI [2],inhibit
"ApoCIII: protein comprising the amino acid sequence shown in SEQ ID NO:2 (Human), SEQ ID NO:4 (Rat) or SEQ ID NO:6 (Macaque)","whole-cell Ca2+ current density, ApoCIII group versus control group",β cell CaV channels [1]; no voltage range printed (FIG. 4d),Significantly higher
same,"whole-cell Ca2+ current density, ApoCIII-treated versus vehicle-treated control cells",β cell CaV channels [1]; voltage range 10-50 mV,significantly higher; also recorded: increased significantly; also recorded: significantly elevated; also recorded: significantly increased
same,"whole-cell Ca2+ current density, ApoCIII group versus control group",β cell CaV channels [1]; voltage range from 10 to 30 mV,significantly higher
same,channel number of CaV1 channels,CaV1 channels [3],significantly increased
same,mean closed time of CaV1 channels,CaV1 channels [3],shortened
same,mean open time of CaV1 channels,CaV1 channels [3],prolonged
same,open probability of CaV1 channels,CaV1 channels [3],elevated
same,"relative abundance of CaV1.2 subunits, ApoCIII versus vehicle incubation",CaV1.2,no significant difference
same,mean closed time of unitary CaV1 channels,CaV1 channels [4],significantly shorter
same,mean open time of unitary CaV1 channels,CaV1 channels [4],significantly greater
same,open probability of unitary CaV1 channels,CaV1 channels [4],significantly greater
same,average number of unitary CaV1 channels,CaV1 channels [4]; plasma membrane patches,significantly greater
same,whole-cell Ca2+ currents after ApoCIII incubation,β cell CaV channels [5],significantly enhances
same,"relative abundance of CaV1.3 subunits, ApoCIII versus vehicle incubation",CaV1.3,no significant difference
"CC(C)(C)OC(=O)N1CCN(c2ccc(NC(=O)c3cc([N+](=O)[O-])ccc3Cl)cc2)CC1 [R-138329, N-[4-(4-tert-Butoxycarbonylpiperazin-1-yl)phenyl]-(2-chloro-5-nitrophenyl)carboxamide]",SRBI receptor activity,SRBI [6],block

# From patent US9068971B2, “Methods for treating and/or limiting development of diabetes” (BioCrine AB, priority 2012, dated 2015)
